The structures appear in SMILES notation. Where only a bound is given, the exact number is not on record here.

One series has as its target HER2 (Homo sapiens, UniProt P04626). Description: pHER2 MSD assay in BT474C1 cells. In kind it is cell-based. Also noted: endogenous in cells; host or cells: BT474C1-Luci Mono1 (BT474 transfected with luciferase only). The note with it: BT474C1, 4 hrs treatment. As for the experimental part: (§1) A431 and BT474C1-Luci Mono1 cells were seeded in 96-well plates at 20,000 cells/well in DMEM medium containing 1% FBS. After overnight incubation, all cells were treated with compounds at a series of concentrations for 4 hrs. For A431 cell line, an extra stimulation with recombinant human EGF (100 ng/ml for 10 minutes) is applied to activate wild-type EGFR following compound treatment. pEGFR^Y1068 and total EGFR levels were measured by an electro chemiluminescent method (MULTI-SPOT®96 4-Spot HB Prototype EGFR Triplex […]: pEGFR (Y1068), Total EGFR; MESO SCALE DISCOVERY, Cat# N45ZB-1) with MSD SECTOR® Imager, which outputs the ratio of pEGFR/total EGFR for each well. pHER2^Y1248 and total HER2 levels were measured similarly using pHER2 (Y1248) Assay Whole Cell Lysate Kit (MESO SCALE DISCOVERY, Cat# K151CLD-3). The percentage of inhibition was calculated as: % Inhibition = 100 x [1 - (ratio of the sample well - ratio of Min ctrl well)/ (ratio of Max ctrl well - ratio of Min ctrl well)].

The next series deals with T1, P-gp (MDR1) (Homo sapiens, UniProt P08183).
T1 construct: expressed in transfected cells; host or cells: MDCKII-MDR1
T1 sequence (P08183 whole entry): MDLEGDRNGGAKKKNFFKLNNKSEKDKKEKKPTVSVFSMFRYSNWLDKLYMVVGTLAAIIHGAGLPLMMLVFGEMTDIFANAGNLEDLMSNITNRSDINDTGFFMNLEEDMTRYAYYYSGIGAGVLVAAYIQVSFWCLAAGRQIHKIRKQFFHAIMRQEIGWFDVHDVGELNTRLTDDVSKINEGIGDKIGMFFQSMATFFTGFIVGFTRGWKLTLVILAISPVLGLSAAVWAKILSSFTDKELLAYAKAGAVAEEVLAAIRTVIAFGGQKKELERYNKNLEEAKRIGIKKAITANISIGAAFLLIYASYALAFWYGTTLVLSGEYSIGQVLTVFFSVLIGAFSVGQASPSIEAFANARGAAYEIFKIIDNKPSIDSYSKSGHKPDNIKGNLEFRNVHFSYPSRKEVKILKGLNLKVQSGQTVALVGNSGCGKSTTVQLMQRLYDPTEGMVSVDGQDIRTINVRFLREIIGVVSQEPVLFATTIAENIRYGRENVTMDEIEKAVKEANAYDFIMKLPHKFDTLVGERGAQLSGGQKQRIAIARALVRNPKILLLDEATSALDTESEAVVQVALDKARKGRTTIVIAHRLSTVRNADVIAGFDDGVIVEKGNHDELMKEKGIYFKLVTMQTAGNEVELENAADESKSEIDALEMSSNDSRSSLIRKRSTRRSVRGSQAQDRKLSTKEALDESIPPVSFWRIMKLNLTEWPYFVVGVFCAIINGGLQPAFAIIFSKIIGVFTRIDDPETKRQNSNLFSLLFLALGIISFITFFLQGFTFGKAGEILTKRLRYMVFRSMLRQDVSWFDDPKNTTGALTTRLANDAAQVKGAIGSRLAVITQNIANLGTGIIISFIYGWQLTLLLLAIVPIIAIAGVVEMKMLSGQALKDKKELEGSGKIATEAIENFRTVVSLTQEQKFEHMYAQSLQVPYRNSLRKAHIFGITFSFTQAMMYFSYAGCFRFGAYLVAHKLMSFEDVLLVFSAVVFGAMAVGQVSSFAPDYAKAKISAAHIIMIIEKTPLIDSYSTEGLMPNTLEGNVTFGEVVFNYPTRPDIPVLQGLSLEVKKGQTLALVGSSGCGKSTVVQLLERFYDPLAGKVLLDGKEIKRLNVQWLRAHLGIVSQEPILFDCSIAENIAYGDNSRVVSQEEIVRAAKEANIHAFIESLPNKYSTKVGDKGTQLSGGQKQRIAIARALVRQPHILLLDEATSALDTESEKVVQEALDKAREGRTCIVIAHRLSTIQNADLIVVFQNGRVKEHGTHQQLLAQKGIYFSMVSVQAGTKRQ
Description: P-gp efflux ratio, bi-directional transport assay. In kind it is in vitro ADME. The text has this: Passive permeability (Papp) characterizes the rate across the cell membrane due to passive diffusion. A high permeability enables the rapid establishment of equilibrium among plasma, CSF, and brain compartments. Except for passive permeability, sufficient unbound drug concentration in the brain is governed by efflux transporters, including P-gp (MDR1, ABCB1) and BCRP, at BBB. Efflux ratio (ER) reflects the liability of a compound to be pumped out of the brain by BBB efflux transporters, which is indicated by the distribution disequilibrium between the plasma and the brain compartments.
[…] The adjusted efflux ratio was used to determine if DZD1516/DZ2678 underwent active efflux. Verapamil, a P-glycoprotein (P-gp) inhibitor, was used to identify if any active transport processes were mediated through P-gp. The apical-to-basolateral (A-B) and basolateral-to-apical (B-A) transport of DZD1516/DZ2678 in HBSS (25 mM HEPES, pH 7.4) with 0.1% BSA was measured across MDCKII-MDR1 cell monolayers in the absence and presence of the P-gp inhibitor, verapamil (100 μM). The apical-to-basolateral (A-B) and basolateral-to-apical (B-A) transport of DZD1516/DZ2678 in HBSS (25 mM HEPES, pH 7.4) with 0.1% BSA was also measured across MDCKII cell monolayers in the absence and presence of the P-gp inhibitor, verapamil. Incubations were performed at approximately 37°C for 120 min, with the functionality of the test system being confirmed using 5 μM digoxin as a positive control substrate. […] determined by quantifying substrate concentration in the incubation medium of the donor compartment at the beginning of the incubation period and both donor and receiver compartments at the end of the incubation period. The data was used to calculate the apparent permeability (Papp). All incubations were performed in triplicate, and the integrity of the cell monolayers was confirmed using the marker Lucifer yellow.

In a further series the target is T2, wild-type EGFR (Homo sapiens, UniProt P00533).
T2 construct: endogenous in cells; host or cells: A431
T2 sequence (P00533 25-1210): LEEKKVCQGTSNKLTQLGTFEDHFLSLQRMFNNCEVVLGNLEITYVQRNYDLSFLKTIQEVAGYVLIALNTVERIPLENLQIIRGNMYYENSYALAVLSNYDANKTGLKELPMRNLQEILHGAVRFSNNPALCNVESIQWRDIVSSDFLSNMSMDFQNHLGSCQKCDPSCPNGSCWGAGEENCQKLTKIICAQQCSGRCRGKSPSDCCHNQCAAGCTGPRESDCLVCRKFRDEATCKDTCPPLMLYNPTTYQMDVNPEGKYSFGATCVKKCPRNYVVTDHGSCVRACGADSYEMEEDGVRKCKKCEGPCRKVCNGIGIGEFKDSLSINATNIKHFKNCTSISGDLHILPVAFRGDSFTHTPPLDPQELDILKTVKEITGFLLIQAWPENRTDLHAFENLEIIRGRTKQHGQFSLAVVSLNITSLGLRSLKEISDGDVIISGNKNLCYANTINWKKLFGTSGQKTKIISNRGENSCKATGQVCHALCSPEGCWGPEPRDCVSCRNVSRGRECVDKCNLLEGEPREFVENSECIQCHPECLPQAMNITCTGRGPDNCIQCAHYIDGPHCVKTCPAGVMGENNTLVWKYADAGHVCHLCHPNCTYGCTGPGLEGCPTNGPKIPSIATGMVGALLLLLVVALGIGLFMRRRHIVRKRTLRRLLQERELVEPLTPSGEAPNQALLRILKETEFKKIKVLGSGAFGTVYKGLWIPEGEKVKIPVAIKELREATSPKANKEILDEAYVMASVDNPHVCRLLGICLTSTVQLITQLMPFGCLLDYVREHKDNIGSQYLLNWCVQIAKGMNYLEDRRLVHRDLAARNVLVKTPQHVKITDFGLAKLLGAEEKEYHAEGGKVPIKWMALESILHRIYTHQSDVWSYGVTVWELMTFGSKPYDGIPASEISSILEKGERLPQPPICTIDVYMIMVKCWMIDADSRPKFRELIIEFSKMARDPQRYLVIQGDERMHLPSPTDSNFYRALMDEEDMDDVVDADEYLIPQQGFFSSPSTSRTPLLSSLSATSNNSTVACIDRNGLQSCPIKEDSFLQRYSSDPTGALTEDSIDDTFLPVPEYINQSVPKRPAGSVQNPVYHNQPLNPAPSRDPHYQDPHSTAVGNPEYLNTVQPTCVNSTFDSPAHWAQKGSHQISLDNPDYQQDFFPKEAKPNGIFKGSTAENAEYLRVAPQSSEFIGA
Description: pEGFR MSD assay in A431 cells. The series is classed as cell-based. Particulars: A431, 4 hrs treatment, EGF stimulation. As for the experimental part: as §1

The next series relates to BT474C1 cells. Kind of series: Cell proliferation assay (CellTiter-Glo), BT474C1. The series is classed as cell-based, human. Particulars: BT474C1, 72 hrs. As for the experimental part:
BT474C1-Luci Mono1 cells were seeded in 384-well plates at 1500 cells/well in DMEM medium containing 10% FBS and 1 mM Oxaloacetic acid (OAA). A431 cells were seeded in 384-well plates at 1,000 cells/well in DMEM medium containing 10% FBS. After overnight incubation, cells were treated with compounds at various concentrations for 3 days. Then cell viability was measured using a CellTiter-Glo Luminescent Cell Viability Assay from Promega Corp. according to the manufacturer's instructions.

Series [1] in a line: Human hepatocyte intrinsic clearance. In kind it is in vitro ADME. The note with it: human hepatocytes; for hepatocyte CLint: read-out: Human Heps Clint.
Another series has as its system P-gp-BCRP. Kind of series: P-gp-BCRP efflux ratio, cellular transport assay. The series is classed as in vitro ADME, human. Particulars: human, not told; 1 µM. As for the experimental part:
A discussion of the structure–activity relationship (SAR) cumulated in the design of DZD1516 (Fig. 1) is as follows. The HER2 inhibitory potency screening for SAR development was performed using HER2 and EGFR enzymatic assays. The cellular activity was evaluated in HER2+ cell line BT474C1 by measuring pHER2 and antiproliferation activities. Cellular transport assays measuring the permeability and efflux ratio of compounds in cells expressing human P-gp (MDR1) and BCRP were used to provide essential information for assessing their BBB penetration potential.

HER2, sequence (P04626 23-1255): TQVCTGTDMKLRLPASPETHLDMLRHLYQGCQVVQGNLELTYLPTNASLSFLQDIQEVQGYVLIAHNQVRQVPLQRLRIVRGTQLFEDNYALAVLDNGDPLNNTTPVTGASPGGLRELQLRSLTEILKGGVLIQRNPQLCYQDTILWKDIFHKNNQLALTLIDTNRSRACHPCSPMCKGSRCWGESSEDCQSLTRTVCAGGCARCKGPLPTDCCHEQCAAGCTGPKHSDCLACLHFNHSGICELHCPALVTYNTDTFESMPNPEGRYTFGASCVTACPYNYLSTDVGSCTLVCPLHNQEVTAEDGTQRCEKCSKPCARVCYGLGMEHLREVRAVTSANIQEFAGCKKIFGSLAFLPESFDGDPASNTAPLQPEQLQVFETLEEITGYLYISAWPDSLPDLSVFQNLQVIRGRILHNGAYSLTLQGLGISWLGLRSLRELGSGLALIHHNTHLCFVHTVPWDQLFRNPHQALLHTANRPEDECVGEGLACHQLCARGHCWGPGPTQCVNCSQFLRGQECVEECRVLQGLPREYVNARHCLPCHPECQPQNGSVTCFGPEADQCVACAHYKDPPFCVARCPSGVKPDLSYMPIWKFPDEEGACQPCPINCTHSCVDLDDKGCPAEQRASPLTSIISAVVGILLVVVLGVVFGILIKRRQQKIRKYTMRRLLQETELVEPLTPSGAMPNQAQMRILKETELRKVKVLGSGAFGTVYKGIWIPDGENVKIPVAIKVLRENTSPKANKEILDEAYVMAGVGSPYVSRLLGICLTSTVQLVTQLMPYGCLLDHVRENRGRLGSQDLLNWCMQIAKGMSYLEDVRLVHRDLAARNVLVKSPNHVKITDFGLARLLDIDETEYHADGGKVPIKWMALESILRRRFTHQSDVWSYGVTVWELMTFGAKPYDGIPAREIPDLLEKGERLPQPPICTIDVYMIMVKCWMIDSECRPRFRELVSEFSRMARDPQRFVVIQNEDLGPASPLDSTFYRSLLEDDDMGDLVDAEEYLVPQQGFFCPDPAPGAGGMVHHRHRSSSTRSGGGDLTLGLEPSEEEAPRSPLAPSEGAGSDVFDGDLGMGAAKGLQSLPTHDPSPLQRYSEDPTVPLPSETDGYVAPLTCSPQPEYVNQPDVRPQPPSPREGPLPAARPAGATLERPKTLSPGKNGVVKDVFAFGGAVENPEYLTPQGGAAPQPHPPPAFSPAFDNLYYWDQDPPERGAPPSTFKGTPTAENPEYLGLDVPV

In the case of `Cc1cc(Nc2ncnc3cccc(OC4CCN(C)CC4)c23)ccc1Oc1ccn2ncnc2c1` [Cpd-1], the half-maximal inhibitory concentration (IC50) against HER2 was 18 nM; against wild-type EGFR it was above 10000 nM. The “Efflux ratio P-gp @1 µM” value on P-gp (MDR1) is given as 1.5. Further, in the series on BT474C1 cells, growth was halved (GI50) at 91 nM.
For the compound `COc1cc(O[C@@H]2CCN(C)CC2(F)F)c2c(Nc3ccc(Oc4ccn5ncnc5c4)c(C)c3)ncnc2c1` [Cpd-4], the IC50 at HER2 was found to be 44 nM. In addition, the “Human Heps Clint” value in series [1] is on record as 20.1 (µL/min)/(10^6 cells). The same compound registered a GI50 with BT474C1 cells of 67 nM.
The compound `CS(=O)(=O)CCNCc1ccc(-c2ccc3ncnc(Nc4ccc(OCc5cccc(F)c5)c(Cl)c4)c3c2)o1` [Lapatinib] showed a GI50 in the series with BT474C1 cells (Homo sapiens) of 13 nM.
On to `CCOc1cc2ncc(C#N)c(Nc3ccc(OCc4ccccn4)c(Cl)c3)c2cc1NC(=O)/C=C/CN(C)C` [Neratinib, reference compound], for which the hepatocyte CLint in series [1] is 7.7 µL/min/1e6 cells. Also, in the series on BT474C1 cells (Homo sapiens), the GI50 stood at 1.3 nM.
Consider `CCOc1cc2ncc(C#N)c(Nc3ccc(OCc4ccccn4)c(Cl)c3)c2cc1NC(=O)/C=C/[C@H]1CCCN1C` [Pyrotinib, reference compound], for which 0.66 nM corresponded to half-maximal inhibition against HER2 (IC50). The compound also had a 50% growth inhibitory concentration (GI50) in the series on BT474C1 cells (Homo sapiens) of 0.7 nM.
Consider `Cc1cc(Nc2ncnc3ccc(NC4=NC(C)(C)CO4)cc23)ccc1Oc1ccn2ncnc2c1` [Tucatinib, reference compound], for which the half-inhibitory concentration (IC50) at HER2 came out at 1.7 nM; against wild-type EGFR it was 2770 nM. The efflux ratio at 120 min, 1 µM on P-gp (MDR1) (human, MDCK-MDR1, pH 7.4) came to 6.2. Besides, in series [1], the hepatocyte CLint was 12.5 µL/min/1e6 cells. In the series on P-gp-BCRP, the efflux ratio at 1 µM is 64. This compound came in with a GI50 in the series on BT474C1 cells (Homo sapiens) of 10 nM.

The term IC50 denotes the midpoint of a concentration-inhibition curve. As a reminder, the GI50 is the concentration giving 50% growth inhibition. A higher GI50 goes with less potent growth inhibition. What is called efflux ratio is the permeability from basolateral to apical divided by that in the opposite direction, in the common usage.

The record behind these values is article PMC10327353 (Breast Cancer Research : BCR, 2023).
